Earlier results in patent US20210337800A1, “METHOD AND SYSTEM OF IMPROVING THE PERSONAL PROTECTIVE EQUIPMENT OF […] AND THE GENERAL PUBLIC USING ANT[…]” (Sockdocs Inc., priority 2020, published 2021).

Test system: viruses
Settings: testing in 2006; no method or virus named

For `CCCCCCCCCCCCCCCCCC[N+](C)(C)CCC[Si](OC)(OC)OC.[Cl-]` [3-(trimethoxysilyl) propyldimethyloctadecyl ammonium chloride], the anti-viral activity is listed as “showed anti-viral activity”.
